The values below come from patent publication US20230414554A1, “COMPOUNDS FOR TREATING HEPATOCELLULAR CARCINOMA” (SERVICIO ANDALUZ DE SALUD, priority 2020, published 2023).

In one data set the test system is THLE-2 cells. Kind of data set: Cell proliferation/viability of cell line derived from normal hepatocytes. The format is cell-based. The note with it: after 72 h; pladienolide-B 10^−8 M, sorafenib 5 nM. Here is the method:
Cell lines and treatments HepG2, Hep3b, and SNU-387 (HB-8065) cell lines were purchased from ATCC (Manassas, USA) and cultured as recommended. The cells were kept at 37° C. and 5% CO2, and periodically validated by means of STR analysis (GenePrint, Promega, Barcelona, Spain) and analyzed to detect mycoplasma contamination. THLE-2 cells were cultured according to the manufacturer's instructions. […] Positive controls [IGF-1 (10^−6M)] and negative controls [Paclitaxel (10^−7M)] were used.
The determination of cell proliferation, migration, apoptosis, clone and tumorsphere formation was performed as published previously.

In data set [1] the test system is Hep3b-induced xenograft tumors. Kind of data set: Hep3b xenograft model, tumor growth and necrosis. The note with it: sorafenib 30 mg/kg in drinking water for 3 days; histopathology vs vehicle. Format: in vivo, nude mice. Here is the method: For in vitro and in vivo administrations, pladienolide-B (Santa Cruz, Heidelberg, Germany) was resuspended in DMSO (Sigma-Aldrich, Madrid, Spain). For in vitro administration, sorafenib (LC Laboratories, Woburn, USA) was dissolved in DMSO. […] For in vivo tests, sorafenib was dissolved in Cremophor EL/ethanol (50:50).
Experiments with xenograft mice were conducted in accordance with the European Animal Care Regulations under the approval of the university/regional government research ethics committees. 5×10^6 Hep3b cells (n=16 mice; n=32 tumors) in 50 μl of BME (Trevigen, Gaithersburg, MD) were subcutaneously grafted on both flanks of eight-week-old male Fox1nu/Foxn1nu nude mice (Janvier Labs, Le Genest-Saint-Isle, France). Tumor growth was monitored twice a week for 2 months by means of using a digital caliper. In the third week after grafting, when tumors were visible, the mice were treated with vehicle, pladienolide B, sorafenib, or the combination thereof (n=4 mice/treatment; n=8 tumors/treatment). Sorafenib (30 mg/kg) was administered dissolved in drinking water for 3 days; whereas the water of the remaining mice was treated with cremophor/ethanol vehicle. Pladienolide-B (10^−8M) was injected intratumorally on the second day of treatment with sorafenib. […] Tumor necrosis was evaluated after hematoxylin and eosin staining by expert pathologists.

For the molecule `CNC(=O)c1cc(Oc2ccc(NC(=O)Nc3ccc(Cl)c(C(F)(F)F)c3)cc2)ccn1` [sorafenib, reference compound], in the data set with THLE-2 cells, the “viability of THLE-2 cells” value was “significantly reduced same”. Also, in data set [1], the tumor necrosis entry is “greater necrosis than tumors treated with vehicle”.
